Assay [1] has as its system Influenza A virus. Description: Antiviral activity against oseltamivir-resistant Influenza A virus A/Hong Kong/2369/09/H275Y(H1N1) infected in MDCK cells assessed as protection against virus-induced cytopathic effect after 48 to 72 hrs by CellTiter 96 aqueous assay. Format: functional, organism-based. For orientation: Damage to the host cells serves as the signal in cytopathic effect assays.

Assay [2] relates to Influenza A virus. As to the kind of experiment: Antiviral activity against oseltamivir-resistant Influenza A virus A/WSN/1933/H275Y (pandemic H1N1) infected in MDCK cells assessed as protection against virus-induced cytopathic effect after 48 to 72 hrs by CellTiter 96 aqueous assay. Format: functional, organism-based, A/WSN/1933/H275Y(H1N1).

Data on three molecules can be found in ChEMBL document CHEMBL2203066 (J Med Chem, 2012).

For orientation: EC50 means the concentration needed to bring the measured effect to its halfway point.

On to `CCC(CC)O[C@@H]1C=C(P(=O)(O)O)C[C@H](NC(=N)N)[C@H]1NC(C)=O`, for which the concentration giving a half-maximal response (EC50) in the assay with Influenza A virus [1] turned out to be 4.6 µM; in the assay on Influenza A virus [2], 3.2 µM.

As for `CCOP(=O)(O)C1=C[C@@H](OC(CC)CC)[C@H](NC(C)=O)[C@@H](N)C1` [TAMIPHOSPHOR MONOETHYL ESTER], the figures for the EC50 in the assay on Influenza A virus [1] and with Influenza A virus [2] were 0.44 µM and 0.49 µM, respectively.

On to `CCC(CC)O[C@@H]1C=C(P(=O)(O)O)C[C@H](N)[C@H]1NC(C)=O` [TAMIPHOSPHOR], for which the EC50 in the assay with Influenza A virus [1] came to 6.55 µM; in the assay on Influenza A virus [2] it was 7.4 µM.
